The supplement of paper PMC10307832

What was measured:
Assay in all cases: relative viability (nuclei count vs DMSO), 5 days (fraction); higher = more cells survive
[1] = tested on: NCI-H2405
Summary of the method: (§1)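 Cells from lung cancer lines were seeded into 1536-well plates and, one day later, dosed by pin tool. Treatments were either a single drug or a fixed dose of an anchor drug with five library-drug doses (not always all listed) in √10 steps. After 5 days, nuclei were stained in a one-step fixation (final 0.05% Triton X-100, 1% formaldehyde, 1 ug/ml Hoechst) and counted on 4× images, and relative viability is the treated-to-vehicle nuclei ratio, as the median of duplicate plates.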

[2] = tested on: NCI-H1437
Summary of the method: as §1

[3] = tested on: ABC-1
Summary of the method: as §1

[4] = tested on: SK-MES-1
Summary of the method: as §1

[5] = tested on: PC-3 [JPC-3]
Summary of the method: as §1

[6] = tested on: EKVX
Summary of the method: as §1

[7] = tested on: COR-L23
Summary of the method: as §1

[8] = tested on: NCI-H520
Summary of the method: as §1

[9] = tested on: NCI-H1651
Summary of the method: as §1

[10] = tested on: CAL-12T
Summary of the method: as §1

[11] = tested on: SW 1573
Summary of the method: as §1

[12] = tested on: NCI-H2228
Summary of the method: as §1

[13] = tested on: NCI-H322M
Summary of the method: as §1

[14] = tested on: NCI-H661
Summary of the method: as §1

[15] = tested on: RERF-LC-KJ
Summary of the method: as §1

[16] = tested on: NCI-H1734
Summary of the method: as §1

[17] = tested on: H3255
Summary of the method: as §1

[18] = tested on: NCI-H1563
Summary of the method: as §1

[19] = tested on: LK-2
Summary of the method: as §1

[20] = tested on: HCC-827
Summary of the method: as §1

[21] = tested on: HCC-15
Summary of the method: as §1

[22] = tested on: NCI-H1355
Summary of the method: as §1

[23] = tested on: PC-14
Summary of the method: as §1

[24] = tested on: NCI-H1650
Summary of the method: as §1

Question: For `CC(C)Oc1cc(Nc2nc(N[C@@H](C)c3ccc(F)cn3)ncc2Cl)n[nH]1` [AZ23] + COc1cccc2cc(-c3nc([C@H]4CC[C@H](C(=O)O)CC4)n4ncnc(N)c34)[nH]c12 [OSI-027] (partner 0.5 µM), which relative viability ([1]; first compound 0.01 µM) is on record?
Answer: 0.555

Question: And the relative viability ([1]; first compound 0.03162 µM)?
Answer: 0.667

Question: And the relative viability ([1]; first compound 0.3162 µM)?
Answer: 0.614

Question: What about the relative viability ([2]; first compound 0.01 µM) of the same compound?
Answer: 0.878

Question: And the relative viability ([2]; first compound 0.03162 µM)?
Answer: 1.01

Question: What about the relative viability ([2]; first compound 0.3162 µM) of the same compound?
Answer: 1.05

Question: And the relative viability ([3]; first compound 0.01 µM)?
Answer: 0.398

Question: And the relative viability ([3]; first compound 0.03162 µM)?
Answer: 0.408

Question: What about the relative viability ([3]; first compound 0.3162 µM) of the same compound?
Answer: 0.469

Question: And the relative viability ([4]; first compound 0.03162 µM)?
Answer: 0.711

Question: What about the relative viability ([4]; first compound 0.3162 µM) of the same compound?
Answer: 0.745

Question: And the relative viability ([5]; first compound 0.01 µM)?
Answer: 0.857

Question: What about the relative viability ([5]; first compound 0.03162 µM) of the same compound?
Answer: 0.71

Question: What about the relative viability ([5]; first compound 0.3162 µM) of the same compound?
Answer: 0.742

Question: What about the relative viability ([6]; first compound 0.01 µM) of the same compound?
Answer: 0.801

Question: What about the relative viability ([6]; first compound 0.03162 µM) of the same compound?
Answer: 0.636

Question: What about the relative viability ([6]; first compound 0.3162 µM) of the same compound?
Answer: 0.66

Question: What about the relative viability ([7]; first compound 0.01 µM) of the same compound?
Answer: 0.758

Question: What about the relative viability ([7]; first compound 0.03162 µM) of the same compound?
Answer: 0.868

Question: What about the relative viability ([7]; first compound 0.3162 µM) of the same compound?
Answer: 0.822

Question: What about the relative viability ([8]; first compound 0.01 µM) of the same compound?
Answer: 0.276

Question: And the relative viability ([8]; first compound 0.03162 µM)?
Answer: 0.281

Question: What about the relative viability ([8]; first compound 0.3162 µM) of the same compound?
Answer: 0.278

Question: What about the relative viability ([9]; first compound 0.03162 µM) of the same compound?
Answer: 0.77

Question: What about the relative viability ([9]; first compound 0.3162 µM) of the same compound?
Answer: 0.881

Question: What about the relative viability ([10]; first compound 0.03162 µM) of the same compound?
Answer: 0.593

Question: And the relative viability ([10]; first compound 0.3162 µM)?
Answer: 0.778

Question: What about the relative viability ([11]; first compound 0.01 µM) of the same compound?
Answer: 0.925

Question: And the relative viability ([11]; first compound 0.03162 µM)?
Answer: 0.7

Question: And the relative viability ([11]; first compound 0.3162 µM)?
Answer: 0.649

Question: And the relative viability ([12]; first compound 0.01 µM)?
Answer: 0.785

Question: What about the relative viability ([12]; first compound 0.03162 µM) of the same compound?
Answer: 0.776

Question: What about the relative viability ([12]; first compound 0.3162 µM) of the same compound?
Answer: 0.671

Question: And the relative viability ([13]; first compound 0.03162 µM)?
Answer: 0.594

Question: What about the relative viability ([13]; first compound 0.3162 µM) of the same compound?
Answer: 0.521

Question: What about the relative viability ([14]; first compound 0.01 µM) of the same compound?
Answer: 0.666

Question: What about the relative viability ([14]; first compound 0.03162 µM) of the same compound?
Answer: 0.766

Question: And the relative viability ([14]; first compound 0.3162 µM)?
Answer: 0.755

Question: And the relative viability ([15]; first compound 0.01 µM)?
Answer: 0.592

Question: What about the relative viability ([15]; first compound 0.03162 µM) of the same compound?
Answer: 0.623

Question: What about the relative viability ([15]; first compound 0.3162 µM) of the same compound?
Answer: 0.616

Question: What about the relative viability ([16]; first compound 0.01 µM) of the same compound?
Answer: 0.628

Question: And the relative viability ([16]; first compound 0.03162 µM)?
Answer: 0.62

Question: And the relative viability ([16]; first compound 0.3162 µM)?
Answer: 0.588

Question: What about the relative viability ([17]; first compound 0.01 µM) of the same compound?
Answer: 0.55

Question: What about the relative viability ([17]; first compound 0.03162 µM) of the same compound?
Answer: 0.618

Question: What about the relative viability ([17]; first compound 0.3162 µM) of the same compound?
Answer: 0.635

Question: What about the relative viability ([18]; first compound 0.01 µM) of the same compound?
Answer: 0.768

Question: What about the relative viability ([18]; first compound 0.03162 µM) of the same compound?
Answer: 0.775

Question: What about the relative viability ([18]; first compound 0.3162 µM) of the same compound?
Answer: 0.775

Question: What about the relative viability ([19]; first compound 0.01 µM) of the same compound?
Answer: 0.176

Question: And the relative viability ([19]; first compound 0.03162 µM)?
Answer: 0.198

Question: What about the relative viability ([19]; first compound 0.3162 µM) of the same compound?
Answer: 0.183

Question: What about the relative viability ([20]; first compound 0.01 µM) of the same compound?
Answer: 0.78

Question: What about the relative viability ([20]; first compound 0.03162 µM) of the same compound?
Answer: 0.793

Question: What about the relative viability ([20]; first compound 0.3162 µM) of the same compound?
Answer: 0.882

Question: And the relative viability ([21]; first compound 0.01 µM)?
Answer: 0.687

Question: And the relative viability ([21]; first compound 0.03162 µM)?
Answer: 0.665

Question: And the relative viability ([21]; first compound 0.3162 µM)?
Answer: 0.684

Question: What about the relative viability ([22]; first compound 0.01 µM) of the same compound?
Answer: 0.401

Question: What about the relative viability ([22]; first compound 0.03162 µM) of the same compound?
Answer: 0.421

Question: And the relative viability ([22]; first compound 0.3162 µM)?
Answer: 0.361

Question: What about the relative viability ([23]; first compound 0.03162 µM) of the same compound?
Answer: 1.01

Question: What about the relative viability ([23]; first compound 0.3162 µM) of the same compound?
Answer: 1.24

Question: And the relative viability ([24]; first compound 0.03162 µM)?
Answer: 0.689

Question: What about the relative viability ([24]; first compound 0.3162 µM) of the same compound?
Answer: 0.713
